Tests used:
Color, ASTM D-1209 = format: physicochemical
Description: Color was measured using ASTM D-1209-05(2001 reapproved), and flash point was determined using ASTM D-92-12b.

[1] = Moisture content by Karl-Fischer; format: physicochemical
Description: Moisture content (% HOH) was measured using an automatic volumetric Karl-Fischer device, the Aquastar AQV21 (Gibbstown, N.J., USA.)

[2] = Kinematic viscosity at 25° C., ASTM method; format: physicochemical
Description: Kinematic viscosity was tested at 25° C. using ASTM (American Society of Testing and Materials, West Conshohocken, Pa., USA) official method number D-44515a.

[3] = Acid value (AV), ASTM method; format: physicochemical
Description: Acid value (AV) was measured using ASTM official method number D-974-1 ? .

[4] = 60° C.; cited from earlier work

Structure (SMILES)	Color (Color, ASTM D-1209)	Moisture [1]	Kinematic Viscosity [2]	Acid value [3]	alkaline hydrolysis rate constant (kOH) [4]
CCCCCCC(C)OC(=O)CCC(=O)OC(C)CCCCCC (stereo not shown) [bis(1-methylheptyl) butanedioate]	12 APHA	0.01 wt. %	12.0 cSt	0.01 mg KOH/g	
CCOC(=O)c1ccccc1 [ethyl benzoate]					0.258 M⁻¹ s⁻¹
CC(C)OC(=O)c1ccccc1 [isopropyl benzoate]					0.0533 M⁻¹ s⁻¹
CCCCCCC(=O)OCC(C)(C)COC(=O)CCCCCC [neopentyl glycol diheptanoate]	17 APHA	0.01 wt. %	7.2 cSt	0.05 mg KOH/g	

Reference: US20200255367A1, “Diesters for Personal Care Applications Derived from 1-Methylheptyl Alcohol” (Inolex Investment Corporation, priority 2016, published 2020)
